Experimental findings from ChEMBL document CHEMBL1147699, “Studies on the novel alpha-glucosidase inhibitory activity and structure-activity relationships for andrographolide analogues” (Bioorg Med Chem Lett, 2006) are described below.

Calls of active or inactive are those of the source. The calls are words filed in the database; no cut-off is given here.

The target of experiment [1] is Maltase-glucoamylase (Homo sapiens) (UniProt O43451). The experiment is described as follows: Inhibition of alpha glucosidase at 100 uM.
Experiment [2] has as its target T1, Cytosolic beta-glucosidase (Homo sapiens) (UniProt Q9H227).
T1 sequence (whole entry): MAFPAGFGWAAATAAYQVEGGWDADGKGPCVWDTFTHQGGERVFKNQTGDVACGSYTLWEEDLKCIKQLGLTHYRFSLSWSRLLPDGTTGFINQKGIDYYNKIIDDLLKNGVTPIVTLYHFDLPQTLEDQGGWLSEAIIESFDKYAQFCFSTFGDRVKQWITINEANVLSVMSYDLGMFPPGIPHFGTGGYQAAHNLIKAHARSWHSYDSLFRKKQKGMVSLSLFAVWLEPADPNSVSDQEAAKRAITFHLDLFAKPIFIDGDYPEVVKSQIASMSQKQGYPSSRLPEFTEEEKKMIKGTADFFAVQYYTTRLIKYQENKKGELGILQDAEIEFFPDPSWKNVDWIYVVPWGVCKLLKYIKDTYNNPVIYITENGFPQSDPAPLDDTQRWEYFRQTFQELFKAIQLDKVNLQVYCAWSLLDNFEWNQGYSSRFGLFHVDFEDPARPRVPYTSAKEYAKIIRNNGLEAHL
Briefly: Inhibition of beta glucosidase at 100 uM.

Chain of Maltase-glucoamylase (Homo sapiens) (O43451 whole entry, looked up): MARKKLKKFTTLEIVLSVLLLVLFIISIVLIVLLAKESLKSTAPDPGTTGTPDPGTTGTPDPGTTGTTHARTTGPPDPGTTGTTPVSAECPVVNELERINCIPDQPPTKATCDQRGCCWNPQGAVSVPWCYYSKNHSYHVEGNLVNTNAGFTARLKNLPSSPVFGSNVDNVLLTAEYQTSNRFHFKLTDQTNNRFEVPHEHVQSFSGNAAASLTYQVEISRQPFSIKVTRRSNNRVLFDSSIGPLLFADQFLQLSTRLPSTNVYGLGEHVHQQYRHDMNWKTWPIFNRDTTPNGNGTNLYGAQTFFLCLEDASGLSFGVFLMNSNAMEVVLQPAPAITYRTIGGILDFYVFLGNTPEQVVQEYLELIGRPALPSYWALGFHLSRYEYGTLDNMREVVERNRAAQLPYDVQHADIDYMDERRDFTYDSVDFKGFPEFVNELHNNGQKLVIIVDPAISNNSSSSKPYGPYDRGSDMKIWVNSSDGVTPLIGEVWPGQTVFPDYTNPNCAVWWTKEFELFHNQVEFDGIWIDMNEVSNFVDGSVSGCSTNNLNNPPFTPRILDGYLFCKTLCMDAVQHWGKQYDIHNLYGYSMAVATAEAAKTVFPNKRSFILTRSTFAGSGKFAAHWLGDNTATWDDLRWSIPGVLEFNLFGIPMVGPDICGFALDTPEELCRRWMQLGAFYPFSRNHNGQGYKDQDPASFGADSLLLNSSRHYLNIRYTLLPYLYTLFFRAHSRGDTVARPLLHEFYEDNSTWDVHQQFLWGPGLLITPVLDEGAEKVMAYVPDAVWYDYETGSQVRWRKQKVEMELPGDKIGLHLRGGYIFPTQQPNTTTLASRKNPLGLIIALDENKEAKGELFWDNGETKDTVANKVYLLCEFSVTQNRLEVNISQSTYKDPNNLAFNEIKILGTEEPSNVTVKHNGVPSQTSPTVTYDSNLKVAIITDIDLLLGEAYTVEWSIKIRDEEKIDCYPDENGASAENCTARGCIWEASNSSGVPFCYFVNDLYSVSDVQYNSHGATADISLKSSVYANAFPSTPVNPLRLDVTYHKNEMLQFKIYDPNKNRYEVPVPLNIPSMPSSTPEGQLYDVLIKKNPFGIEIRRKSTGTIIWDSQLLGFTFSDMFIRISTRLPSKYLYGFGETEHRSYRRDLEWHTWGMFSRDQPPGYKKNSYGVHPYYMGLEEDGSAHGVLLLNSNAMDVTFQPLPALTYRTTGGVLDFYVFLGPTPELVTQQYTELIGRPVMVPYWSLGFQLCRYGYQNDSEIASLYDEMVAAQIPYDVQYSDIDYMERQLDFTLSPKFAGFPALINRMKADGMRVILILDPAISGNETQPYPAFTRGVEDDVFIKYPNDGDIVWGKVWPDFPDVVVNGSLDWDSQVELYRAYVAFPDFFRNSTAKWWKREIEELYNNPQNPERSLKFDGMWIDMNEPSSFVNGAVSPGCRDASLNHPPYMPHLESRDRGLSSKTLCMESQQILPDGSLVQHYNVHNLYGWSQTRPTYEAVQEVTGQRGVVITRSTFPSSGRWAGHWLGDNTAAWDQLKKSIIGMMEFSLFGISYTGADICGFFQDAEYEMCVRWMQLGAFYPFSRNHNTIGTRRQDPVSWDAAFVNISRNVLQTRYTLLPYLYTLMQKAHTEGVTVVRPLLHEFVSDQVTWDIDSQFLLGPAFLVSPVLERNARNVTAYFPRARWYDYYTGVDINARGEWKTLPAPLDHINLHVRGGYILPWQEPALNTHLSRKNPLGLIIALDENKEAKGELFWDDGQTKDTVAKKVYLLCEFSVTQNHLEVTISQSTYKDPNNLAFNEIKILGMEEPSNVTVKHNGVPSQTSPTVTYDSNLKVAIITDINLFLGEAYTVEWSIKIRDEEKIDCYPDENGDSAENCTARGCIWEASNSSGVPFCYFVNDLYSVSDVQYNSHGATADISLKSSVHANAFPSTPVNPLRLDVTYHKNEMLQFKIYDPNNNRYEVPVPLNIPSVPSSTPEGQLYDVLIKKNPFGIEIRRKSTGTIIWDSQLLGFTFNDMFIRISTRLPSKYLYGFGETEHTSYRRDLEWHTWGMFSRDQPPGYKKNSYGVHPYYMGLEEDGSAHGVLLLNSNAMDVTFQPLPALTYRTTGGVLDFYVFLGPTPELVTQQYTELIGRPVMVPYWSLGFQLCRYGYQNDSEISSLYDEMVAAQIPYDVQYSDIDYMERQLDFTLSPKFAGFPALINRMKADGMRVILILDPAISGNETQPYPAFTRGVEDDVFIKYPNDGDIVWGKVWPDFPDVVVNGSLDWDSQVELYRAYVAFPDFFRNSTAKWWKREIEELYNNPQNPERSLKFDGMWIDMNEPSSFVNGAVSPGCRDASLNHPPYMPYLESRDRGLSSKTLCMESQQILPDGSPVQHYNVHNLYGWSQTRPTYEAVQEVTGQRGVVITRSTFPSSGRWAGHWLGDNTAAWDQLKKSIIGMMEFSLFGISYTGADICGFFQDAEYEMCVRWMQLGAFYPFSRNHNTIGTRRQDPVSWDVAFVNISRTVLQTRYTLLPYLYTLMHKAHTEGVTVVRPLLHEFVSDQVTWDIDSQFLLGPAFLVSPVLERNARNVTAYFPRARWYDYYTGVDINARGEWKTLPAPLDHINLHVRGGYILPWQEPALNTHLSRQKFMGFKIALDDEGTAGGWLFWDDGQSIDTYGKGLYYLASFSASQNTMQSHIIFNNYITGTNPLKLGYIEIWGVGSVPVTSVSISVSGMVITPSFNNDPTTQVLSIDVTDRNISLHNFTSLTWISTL

As a reminder, the inhibition is how much of the control response was suppressed. With `C=C1CC[C@@H]2[C@]3(C)COC(CCCC)O[C@@H]3CC[C@@]2(C)[C@@H]1C/C=C1/C(=O)OC[C@H]1O` (stereo not given in full), the inhibition entry in experiment [1] and in experiment [2] was “inactive” throughout. For the compound `C[C@]1(CO)[C@H]2CC[C@@]3(CO3)[C@@H](/C=C/C3=CCOC3=O)[C@]2(C)CC[C@H]1O`, the inhibition result in experiment [1] is “inactive”.

Consider `C=C1CC[C@@H]2[C@]3(C)COC(C)(C)O[C@@H]3CC[C@@]2(C)[C@@H]1C/C=C1/C(=O)OC[C@H]1O`, for which the inhibition result in experiment [1] and in experiment [2] was “inactive” in each case. For the compound `C=C1CC[C@@H]2[C@](C)(CO)[C@H](O)CC[C@@]2(C)[C@@H]1/C=C/C1=CC(=C/c2cccc(Br)c2)/OC1=O`, the inhibition in experiment [1] turned out to be 16.7%. Still for that read-out and setting: the result for `C=C1CC[C@@H]2[C@]3(C)COC(c4ccccc4)O[C@@H]3CC[C@@]2(C)[C@@H]1C/C=C1/C(=O)OC[C@H]1O` (stereo not given in full) reads 48.9%.

Turning to `C=C1CC[C@@H]2[C@]3(C)COC(c4cccc(Br)c4)O[C@@H]3CC[C@@]2(C)[C@@H]1C/C=C1/C(=O)OC[C@H]1O` (stereo not given in full), in experiment [1], the inhibition worked out at 49.6%. The same measure, in the same setting: next, `C=C1CC[C@@H]2[C@]3(C)COC(c4ccc(OC)cc4)O[C@@H]3CC[C@@]2(C)[C@@H]1C/C=C1/C(=O)OC[C@H]1O` (stereo not given in full): 13.2%. Turning to `C=C1CC[C@@H]2[C@](C)(CO)[C@H](O)CC[C@@]2(C)[C@@H]1C/C=C1/C(=O)OC[C@H]1O`, the inhibition entry in experiment [1] and in experiment [2] was “inactive” in each case.

With `C=C1CC[C@@H]2[C@](C)(CO)[C@H](O)CC[C@@]2(C)[C@@H]1/C=C/C1=CC(=C/CCC)/OC1=O`, the inhibition in experiment [1] is 43.5%. Further, the inhibition result in experiment [2] was “inactive”. `C=C1CC[C@@H]2[C@](C)(CO)[C@H](O)CC[C@@]2(C)[C@@H]1/C=C/C1=CC(=C/c2ccc(F)cc2)/OC1=O`: the inhibition result in experiment [1] is “inactive”. Turning to `C=C1CC[C@@H]2[C@]3(C)COC(c4ccc(Cl)cc4)O[C@@H]3CC[C@@]2(C)[C@@H]1C/C=C1/C(=O)OC[C@H]1O` (stereo not given in full), the inhibition result in experiment [1] and in experiment [2] was “inactive” throughout. `C=C1CC[C@@H]2[C@]3(C)COC(c4ccccc4OC)O[C@@H]3CC[C@@]2(C)[C@@H]1C/C=C1/C(=O)OC[C@H]1O` (stereo not given in full) came in with an inhibition in experiment [1] of 5.5%.

Consider `C=C1CC[C@@H]2[C@]3(C)COC(c4cc(OC)c(OC)cc4OC)O[C@@H]3CC[C@@]2(C)[C@@H]1C/C=C1/C(=O)OC[C@H]1O` (stereo not given in full), for which the inhibition in experiment [1] amounted to 14.5%.

`C=C1CC[C@@H]2[C@](C)(CO)[C@H](O)CC[C@@]2(C)[C@@H]1/C=C/C1=CCOC1=O` displayed an inhibition in experiment [1] of 16.5%. Moreover, the inhibition entry in experiment [2] is “inactive”. On the same counts, the results for `C=C1CC[C@@H]2[C@](C)(CO)[C@H](O)CC[C@@]2(C)[C@@H]1CCC1C(=O)OC[C@H]1O` (stereo not given in full) are 34.2% and “inactive”.

For the compound `CC(C)=C1C=C(/C=C/[C@@H]2[C@@]3(CC[C@@H]4[C@](C)(CO)[C@H](O)CC[C@]42C)CO3)C(=O)O1`, in experiment [1], the inhibition entry is “inactive”. The same measure, in the same setting: the result for `COc1ccc(/C=C2C=C(/C=C/[C@@H]3[C@@]4(CC[C@@H]5[C@](C)(CO)[C@H](O)CC[C@]53C)CO4)C(=O)O/2)cc1` reads 37.7%. In the case of `C=C1CC[C@@H]2[C@]3(C)COCO[C@@H]3CC[C@@]2(C)[C@@H]1C/C=C1/C(=O)OC[C@H]1O`, the inhibition result in experiment [1] and in experiment [2] was “inactive” in each case.

Turning to `C=C1CC[C@@H]2[C@](C)(CO)[C@H](O)CC[C@@]2(C)[C@@H]1/C=C/C1=CC(=C(C)C)OC1=O`, the inhibition in experiment [1] was found to be 17.1%. Also, the inhibition entry in experiment [2] was “inactive”. As to `C=C1CC[C@@H]2[C@](C)(CO)[C@H](O)CC[C@@]2(C)[C@@H]1/C=C/C1=CC(=C/c2ccc(OC)cc2)/OC1=O`, the inhibition in experiment [1] stood at 100%. On the same count and under the same terms, next, `C=C1CC[C@@H]2[C@](C)(CO)[C@H](O)CC[C@@]2(C)[C@@H]1/C=C/C1=CC(=C/C=C(/C)CCC=C(C)C)/OC1=O`: “inactive”. In experiment [1], `C[C@]1(CO)[C@H]2CC[C@@]3(CO3)[C@@H](/C=C/C3=CC(=C/C=C/c4ccccc4)/OC3=O)[C@]2(C)CC[C@H]1O` gave an inhibition of 49.2%. Still for that read-out and setting: next, `C=C1CC[C@@H]2[C@](C)(CO)[C@H](O)CC[C@@]2(C)[C@@H]1/C=C/C1=CC(=C/C=C/c2ccccc2)/OC1=O`: 84.3%. Same read-out and setting: the result for `C=C1CC[C@@H]2[C@](C)(CO)[C@H](O)CC[C@@]2(C)[C@@H]1/C=C/C1=CC(=C/c2ccc(Cl)cc2)/OC1=O` reads “inactive”. `C=C1CC[C@@H]2[C@]3(C)COC(CCCCCC)O[C@@H]3CC[C@@]2(C)[C@@H]1C/C=C1/C(=O)OC[C@H]1O` (stereo not given in full) came in with an inhibition in experiment [1] of 20.1%. Besides, the inhibition entry in experiment [2] is “inactive”. Consider `C=C1CC[C@@H]2[C@](C)(CO)[C@H](O)CC[C@@]2(C)/C1=C/C=C1\C=COC1=O`, for which the inhibition entry in experiment [1] and in experiment [2] was “inactive” throughout. Compound `C=C1CC[C@@H]2[C@](C)(CO)[C@H](O)CC[C@@]2(C)[C@@H]1/C=C/C1=CC(=C/C)/OC1=O` showed an inhibition in experiment [1] of 15.1%. The inhibition result in experiment [2] was “inactive”. `C=C1CC[C@@H]2[C@]3(C)COC(c4ccc(F)cc4)O[C@@H]3CC[C@@]2(C)[C@@H]1C/C=C1/C(=O)OC[C@H]1O` (stereo not given in full) gave an inhibition in experiment [1] of 26.2%.
